Experimental data taken from patent publication US20250170248A1, “SMARCA DEGRADERS AND USES THEREOF” (Kymera Therapeutics, Inc., priority 2021, published 2025).

Experiments:
Format in all cases: cell-based
SMARCA2 [1] = target: T1, SMARCA2 (Homo sapiens, UniProt P51531); assay: MSD SMARCA2 degradation in A549 cell line; conditions: for Dmax: A549, A549 cells; for Dmax / DC50: 24 h; for DC50 / SMARCA2 MSD A549 degradation 24 h: Average Dmax %: A549 cells; for DC50: read-out: SMARCA2 MSD A549 degradation 24 h: Average external-Abs DC50
T1 sequence (P51531 whole entry): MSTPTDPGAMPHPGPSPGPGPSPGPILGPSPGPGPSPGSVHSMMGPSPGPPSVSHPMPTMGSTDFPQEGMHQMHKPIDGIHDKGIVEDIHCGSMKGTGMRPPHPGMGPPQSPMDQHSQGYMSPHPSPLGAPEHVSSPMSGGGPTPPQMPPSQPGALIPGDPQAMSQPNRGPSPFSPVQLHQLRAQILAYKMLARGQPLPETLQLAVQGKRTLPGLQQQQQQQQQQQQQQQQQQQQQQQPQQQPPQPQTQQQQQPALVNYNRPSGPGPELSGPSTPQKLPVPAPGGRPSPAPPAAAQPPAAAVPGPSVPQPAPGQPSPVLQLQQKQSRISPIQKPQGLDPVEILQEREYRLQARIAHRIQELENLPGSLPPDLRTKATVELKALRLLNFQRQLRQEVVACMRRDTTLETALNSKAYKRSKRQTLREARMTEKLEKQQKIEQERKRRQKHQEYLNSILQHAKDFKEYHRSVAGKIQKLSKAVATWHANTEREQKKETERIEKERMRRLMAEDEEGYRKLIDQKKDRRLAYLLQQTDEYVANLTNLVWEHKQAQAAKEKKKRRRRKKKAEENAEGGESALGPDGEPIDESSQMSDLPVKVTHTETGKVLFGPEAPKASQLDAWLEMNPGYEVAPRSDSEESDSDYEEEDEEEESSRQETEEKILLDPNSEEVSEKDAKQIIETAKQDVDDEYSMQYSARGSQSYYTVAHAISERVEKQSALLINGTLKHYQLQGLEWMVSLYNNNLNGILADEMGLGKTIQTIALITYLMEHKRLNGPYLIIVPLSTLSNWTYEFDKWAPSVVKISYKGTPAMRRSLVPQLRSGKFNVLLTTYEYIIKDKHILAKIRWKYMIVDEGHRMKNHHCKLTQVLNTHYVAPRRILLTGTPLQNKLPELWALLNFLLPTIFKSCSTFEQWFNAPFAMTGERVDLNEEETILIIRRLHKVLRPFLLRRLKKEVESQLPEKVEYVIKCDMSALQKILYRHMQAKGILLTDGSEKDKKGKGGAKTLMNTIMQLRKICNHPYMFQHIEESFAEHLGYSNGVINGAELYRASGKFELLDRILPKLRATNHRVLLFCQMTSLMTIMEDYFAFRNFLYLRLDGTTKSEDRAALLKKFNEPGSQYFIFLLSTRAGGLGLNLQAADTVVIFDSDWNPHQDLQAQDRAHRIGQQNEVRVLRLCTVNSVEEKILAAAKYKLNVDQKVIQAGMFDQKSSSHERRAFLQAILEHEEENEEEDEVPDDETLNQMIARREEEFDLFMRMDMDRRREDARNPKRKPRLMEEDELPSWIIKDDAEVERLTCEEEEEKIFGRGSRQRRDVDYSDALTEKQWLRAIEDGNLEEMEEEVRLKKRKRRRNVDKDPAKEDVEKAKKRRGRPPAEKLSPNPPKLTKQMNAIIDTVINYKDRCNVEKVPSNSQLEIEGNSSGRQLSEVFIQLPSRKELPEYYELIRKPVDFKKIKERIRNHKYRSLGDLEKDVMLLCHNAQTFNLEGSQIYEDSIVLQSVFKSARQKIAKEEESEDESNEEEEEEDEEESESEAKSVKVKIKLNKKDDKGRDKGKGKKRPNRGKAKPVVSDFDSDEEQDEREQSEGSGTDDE
Experimental: Example 10. MSD SMARCA2 Degradation in A549 Cell Line
Cells were seeded into 96-well plates (A549 cells: 2×10^4 cells/well/100 ul media) and incubated overnight. The next day, 200 nL compound were added into the intermediate plate with Echo (Labcyte 550) from source plate containing a 3-fold serial dilution from top concentration of 1 mM. The culture medium was changed with 8 0ul of fresh medium and 80 μL of 2× compound solution was added into the well to make a final concentration of 1000 nM, 333.3 nM, 111.1 nM, 37.04 nM, 12.35 nM, 4.115 nM, 1.372 nM, 0.457 nM, 0.152 nM and 0 nM (DMSO). The wells were mixed and then incubated for 24 hours. The media was aspirated from the cultures and 60 ul pre-chilled PIPA lysis buffer (Boston BioProducts BP-115D) with protease/phosphatase inhibitor (Roche 05892791001/Roche 04906837001) was added into the well to lyze the cells for 20 minutes at 4° C. The MSD plate (L15XA) was coated with 40 uL cell lysate and incubated at 4° C. overnight. The next day, the plate was washed three times with TBST (CST #9997S), 150 ul/well. The MSD plates was blocked with 150 ul blocking buffer per well and shaked for 1 hr at RT, 600 rpm. The blocking buffer was 3% Blocker A (MSD, R93BA-4) in TBST. The MSD plate was washed three times with 150 uL/well of TBST and 25 ul/well of detection antibody (Rabbit anti-SMARCA2/BRM antibody, 100 μg/mL, ab223735) was added at final concentration of 1 μg/mL diluted in 1% Blocking buffer and shaken for 1 hour at RT, 600 rpm. The MSD plate was washed three times with 150 ul/well of TBST and 25 ul/well of SULFO-TAG anti-rabbit antibody (MSD, R32AB-1) was added at final concentration of 1 μg/ml diluted in 1% Blocking buffer and shaken for 1 hour at RT, 600 rpm. The MSD plate was washed three times with 150 uL/well of TBST and 150 ul/well of 2× MSD reading buffer diluted from 4× (MSD, R92TC-2) with water was added. Lastly, the MSD instrument was read.
The letter codes for SMARCA2 degradation potency (DC50) include: A (<10 nM), B (10-50 nM), C (>50-100 nM), and D (>100 nM). The letter codes for the percentage of SMARCA degradation after 24 hours (Dmax %) include: A (>90% degradation), B (>70-90% degradation), C (50-70% degradation), and D (<50% degradation).

SMARCA4 = target: T2, SMARCA4 (Homo sapiens, UniProt P51532); assay: SMARCA4 Western blot degradation in MV4-11 cells; conditions: for Dmax: MV4-11, MV4-11 cells, read-out: SMARCA4 MSD MV411 degradation 24 h: average Dmax %; for Dmax / DC50: 24 h; for DC50: read-out: SMARCA4 MSD MV411 degradation 24 h: Mean external-Abs DC50
T2 construct: SMARCA2/SMARCA4 protein degradation selectivity in MV4-11 cells; endogenous in cells; host or cells: MV4-11
T2 sequence (P51532 whole entry): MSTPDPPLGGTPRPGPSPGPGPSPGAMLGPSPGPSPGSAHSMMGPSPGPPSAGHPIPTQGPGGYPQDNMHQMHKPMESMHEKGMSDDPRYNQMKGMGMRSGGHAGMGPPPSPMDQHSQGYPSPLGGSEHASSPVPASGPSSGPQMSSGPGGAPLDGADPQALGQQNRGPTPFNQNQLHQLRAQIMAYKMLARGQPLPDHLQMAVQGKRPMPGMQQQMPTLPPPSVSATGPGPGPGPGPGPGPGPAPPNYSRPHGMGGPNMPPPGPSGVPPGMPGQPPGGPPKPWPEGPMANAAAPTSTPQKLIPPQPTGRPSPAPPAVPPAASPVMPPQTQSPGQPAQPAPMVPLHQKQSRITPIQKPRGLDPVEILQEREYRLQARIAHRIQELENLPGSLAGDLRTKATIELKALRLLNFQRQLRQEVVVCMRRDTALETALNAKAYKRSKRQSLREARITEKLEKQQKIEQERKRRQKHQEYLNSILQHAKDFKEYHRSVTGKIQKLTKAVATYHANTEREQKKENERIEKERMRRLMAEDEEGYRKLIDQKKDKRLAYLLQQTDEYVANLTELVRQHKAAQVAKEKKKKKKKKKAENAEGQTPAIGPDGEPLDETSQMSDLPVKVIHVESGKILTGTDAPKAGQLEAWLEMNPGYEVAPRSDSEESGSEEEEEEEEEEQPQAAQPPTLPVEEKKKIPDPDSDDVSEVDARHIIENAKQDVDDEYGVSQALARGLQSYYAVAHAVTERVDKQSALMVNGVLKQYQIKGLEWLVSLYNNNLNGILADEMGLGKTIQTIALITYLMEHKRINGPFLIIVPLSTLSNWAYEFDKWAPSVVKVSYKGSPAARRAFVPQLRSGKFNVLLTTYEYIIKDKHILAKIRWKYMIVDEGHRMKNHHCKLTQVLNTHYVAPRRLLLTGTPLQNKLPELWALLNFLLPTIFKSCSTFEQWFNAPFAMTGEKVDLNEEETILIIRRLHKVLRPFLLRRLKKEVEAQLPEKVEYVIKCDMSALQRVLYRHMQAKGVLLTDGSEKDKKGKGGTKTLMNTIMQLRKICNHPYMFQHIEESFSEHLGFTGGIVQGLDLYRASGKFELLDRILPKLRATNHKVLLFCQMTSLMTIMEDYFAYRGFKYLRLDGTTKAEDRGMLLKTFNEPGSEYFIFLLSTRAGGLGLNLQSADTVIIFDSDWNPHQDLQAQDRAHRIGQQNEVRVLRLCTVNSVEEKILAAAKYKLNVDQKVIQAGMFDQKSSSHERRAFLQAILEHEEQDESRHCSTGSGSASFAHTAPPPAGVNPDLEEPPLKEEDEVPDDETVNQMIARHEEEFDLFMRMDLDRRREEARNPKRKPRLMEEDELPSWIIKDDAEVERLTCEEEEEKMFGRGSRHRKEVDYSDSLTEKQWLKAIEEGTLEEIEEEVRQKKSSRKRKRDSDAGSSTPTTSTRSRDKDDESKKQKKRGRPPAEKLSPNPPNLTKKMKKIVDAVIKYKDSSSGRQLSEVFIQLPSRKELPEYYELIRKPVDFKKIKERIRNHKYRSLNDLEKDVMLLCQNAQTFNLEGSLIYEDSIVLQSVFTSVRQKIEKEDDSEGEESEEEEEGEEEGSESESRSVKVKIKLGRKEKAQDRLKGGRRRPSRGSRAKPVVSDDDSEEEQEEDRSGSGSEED
Experimental: Example 11. SMARCA2 and SMARCA4 Western Blot MV4-11 Degradation
Cells were seeded into 6-well plates (MV4-11:4×10^6 cells/well/1 ml) and 1 ml of 2× compound solution was added into the well to make the final concentration and the plates were mixed well and incubated for 24 hours (No cytotoxicity was observed). The cell were collected with media and spun at 3000 rpm for 5 minutes. The supernatant was aspirated and the well and the cells were washed with cold PBS once and combined for centrifugation again; the supernatant aspirated again. 200 uL pre-chilled RIPA lysis buffer (Boston BioProducts BP-115D) with protease/phosphatase inhibitor (Roche 05892791001/Roche 04906837001) was directly added into the tube to lyze the cells for 20 minutes on ice. The cell lysate were collected into EP tubes and spun at 13000 rpm for 20 minutes and 72 uL supernatant was transferred to a fresh EP tube containing 18 μL of 5× loading buffer (Beyotime Bio P0015) to make the loading samples. The samples were heated to 100° C. for 10 minutes and cooled to RT and microcentrifuged. 20 μL of samples were loaded onto SDS-PAGE gel (Novex, WG1402BOX) and the gel was run at 80 V for 20 minutes and 120 V for 1.5 hours. The samples were electrotransfer to a NC membrane using wet-transfer method with 250 mA for 2.5 hours. The membrane was blocked with LICOR blocking buffer (LI COR,927-50000) for 1 hour. The membrane was washed three times with TBST(CST #9997S), 5 minutes each. Incubation was performed with primary antibody prepared in blocking buffer with 0.1% Tween-20 (Solarbio, P8220) at 4° C. overnight (Anti-SMARCA2/BRM antibody (ab15597) 1:500; Anti-BRG1 antibody [EPR3912](ab108318) 1:1000; Rabbit anti-Bafl80 antibody [EPR15860](Abcam,ab196022) 1:1000; mouse anti-beta-Actin (8H10D10) (CST #3700) 1:10000). The membrane was washed three times with TBST, 5 minutes each. Incubation with secondary antibody was performed for 1 hour at RT (anti-rabbit IgG (Licor,926-32211) 1:5000; anti-mouse IgG (LI-COR, 926-68070) 1:5000). The membrane was washed three times with 5 minutes each and lastly the LiCOR was read.
The letter codes for SMARCA2/4 degradation potency (DC50) include: A (<1 nM), B (1-10 nM), C (>10-100 nM), and D (>100 nM). The letter codes for the percentage of SMARCA2/4 degradation after 24 hours (Dmax %) include: A (>90% degradation), B (>70-90% degradation), C (50-70% degradation), and D (<50% degradation). The letter codes of SMARCA2/4 selectivity include: A (>500 fold), B (>100-500 fold), C (10-100 fold), and D (<10 fold). Table 8. SMARCA2/4 Selectivity Results

SMARCA2 [2] = target: T1, SMARCA2; assay: SMARCA2 Western blot degradation in MV4-11 cells; design: SMARCA2/SMARCA4 protein degradation selectivity in MV4-11 cells; endogenous in cells; host or cells: MV4-11; conditions: for Dmax: MV4-11, MV4-11 cells, read-out: SMARCA2 MSD MV411 degradation 24 h: average Dmax %; for Dmax / DC50 / SMARCA2 MSD MV411 degradation 24 h: average Dmax %: 24 h; for DC50 / Selectivity in MV411 / SMARCA2 MSD MV411 degradation 24 h: average Dmax %: MV4-11 cells; for DC50: read-out: SMARCA2 MSD MV411 degradation 24 h: Mean external-Abs DC50; for Selectivity in MV411: SMARCA2/4 selectivity

SMILES | Dmax (SMARCA2 [1]) | DC50 (SMARCA2 [1]) | Dmax (SMARCA4) | DC50 (SMARCA4; MV4-11 cells) | Dmax (SMARCA2 [2]) | DC50 (SMARCA2 [2]) | Selectivity in MV411 (SMARCA2 [2]) | SMARCA2 MSD A549 degradation 24 h: Average Dmax % (SMARCA2 [1]) | SMARCA4 MSD MV411 degradation 24 h: average Dmax % (SMARCA4; MV4-11 cells) | SMARCA2 MSD MV411 degradation 24 h: average Dmax % (SMARCA2 [2])
C#Cc1ccc(CNC(=O)[C@@H]2C[C@@H](O)CN2C(=O)[C@@H](NC(=O)N2CC3(CC(N4CCC(N5CCC(N6CCc7[nH]c8nnc(-c9ccccc9O)cc8c7[C@H]6C)C5)CC4)C3)C2)C(C)(C)C)cc1 (mixture of isomers) [I-188] | > 90% | > 100 nM | < 50% | > 100 nM | 50 to 70% | 10 to 100 nM | C (C (10-100 fold)) | – | – | –
C#Cc1ccc(CNC(=O)[C@@H]2C[C@@H](O)CN2C(=O)[C@@H](NC(=O)N2CCCC(N3CCC(c4cnc(N5CCN6c7cc(-c8ccccc8O)nnc7NC[C@H]6C5)nc4)CC3)C2)C(C)(C)C)cc1 (mixture of isomers) [I-245] | 70 to 90% | > 100 nM | < 50% | > 100 nM | 50 to 70% | 10 to 100 nM | B (B (>100-500 fold)) | – | – | –
Cc1ncsc1-c1ccc(CNC(=O)[C@@H]2C[C@@H](O)CN2C(=O)C(c2cc(OC[C@H]3CC[C@H](N4CCC(c5cnc(N6CCc7[nH]c8nnc(-c9ccccc9O)cc8c7[C@H]6C)nc5)CC4)CC3)no2)C(C)C)cc1 (single isomer, unassigned) [I-1] | > 90% | < 10 nM | > 90% | 1 to 10 nM | > 90% | 1 to 10 nM | D (D (<10 fold)) | – | – | –
Cc1ncsc1-c1ccc(CNC(=O)[C@@H]2C[C@@H](O)CN2C(=O)C(c2cc(OC[C@H]3CC[C@@H](N4CCC(c5cnc(N6CCc7[nH]c8nnc(-c9ccccc9O)cc8c7[C@H]6C)nc5)CC4)CC3)no2)C(C)C)cc1 (single isomer, unassigned) [I-2] | 70 to 90% | 10 to 50 nM | > 90% | 10 to 100 nM | > 90% | 1 to 10 nM | D (D (<10 fold)) | – | – | –
Cc1ncsc1-c1ccc(CNC(=O)[C@@H]2C[C@@H](O)CN2C(=O)[C@@H](NC(=O)[C@H]2CC3(C2)C[C@H](N2CCC(c4ccnc(N5CCN6c7cc(-c8ccccc8O)nnc7NC[C@@H]6C5)n4)CC2)C3)C(C)(C)C)cc1 (single isomer, unassigned) [I-3] | 70 to 90% | > 100 nM | 50 to 70% | > 100 nM | 70 to 90% | 1 to 10 nM | A (A (>500 fold)) | – | – | –
Cc1ncsc1-c1ccc(CNC(=O)[C@@H]2C[C@@H](O)CN2C(=O)[C@@H](NC(=O)[C@H]2CC3(C2)C[C@H](N2CCC(c4ccnc(N5CCN6c7cc(-c8ccccc8O)nnc7NC[C@@H]6C5)n4)CC2)C3)C(C)(C)C)cc1 (single isomer, unassigned) [I-4] | – | > 100 nM | – | > 100 nM | – | 1 to 10 nM | B (B (>100-500 fold)) | C (C (50-70% degradation)) | D (D (<50% degradation)) | B (B (>70-90% degradation))
Cc1ncsc1-c1ccc(CNC(=O)[C@@H]2C[C@@H](O)CN2C(=O)[C@@H](NC(=O)[C@H]2CC3(C2)C[C@H](N2CCC(c4ccnc(N5CCN6c7cc(-c8ccccc8O)nnc7NC[C@H]6C5)n4)CC2)C3)C(C)(C)C)cc1 (single isomer, unassigned) [I-5] | > 90% | 10 to 50 nM | < 50% | > 100 nM | > 90% | 1 to 10 nM | A (A (>500 fold)) | – | – | –
Cc1ncsc1-c1ccc(CNC(=O)[C@@H]2C[C@@H](O)CN2C(=O)C(c2cc(N3CCC(CCN4CCC(c5cnc(N6CCc7[nH]c8nnc(-c9ccccc9O)cc8c7[C@@H]6C)nc5)CC4)CC3)no2)C(C)C)cc1 (single isomer, unassigned) [I-8] | > 90% | 10 to 50 nM | 70 to 90% | 10 to 100 nM | 70 to 90% | 1 to 10 nM | D (D (<10 fold)) | – | – | –
Cc1ncsc1-c1ccc(CNC(=O)[C@@H]2C[C@@H](O)CN2C(=O)C(c2cc(N3CC4(CCC(N5CCC(c6cnc(N7CCc8[nH]c9nnc(-c%10ccccc%10O)cc9c8[C@@H]7C)nc6)CC5)CC4)C3)no2)C(C)C)cc1 (single isomer, unassigned) [I-9] | 70 to 90% | 10 to 50 nM | 70 to 90% | 10 to 100 nM | > 90% | 1 to 10 nM | C (C (10-100 fold)) | – | – | –
C#Cc1ccc(CNC(=O)[C@@H]2C[C@@H](O)CN2C(=O)[C@@H](NC(=O)[C@H]2CCC3(CC2)C[C@H](N2CCC(c4cnc(N5CCN6c7cc(-c8cccc(Cl)c8O)nnc7NC[C@@H]6C5)nc4)CC2)C3)C(C)(C)C)cc1 (single isomer, unassigned) [I-154] | – | > 100 nM | – | – | – | 10 to 100 nM | – | A (A (>90% degradation)) | – | C (C (50-70% degradation))
C#Cc1ccc(CNC(=O)[C@@H]2C[C@@H](O)CN2C(=O)[C@@H](NC(=O)[C@H]2CCC3(CC2)C[C@H](N2CCC(c4cnc(N5CCN6c7cc(-c8cccc(F)c8O)nnc7NC[C@H]6C5)nc4)CC2)C3)C(C)(C)C)cc1 (single isomer, unassigned) [I-157] | > 90% | 50 to 100 nM | – | – | – | 1 to 10 nM | – | – | – | B (B (>70-90% degradation))
C#Cc1ccc(CNC(=O)[C@@H]2C[C@@H](O)CN2C(=O)[C@@H](NC(=O)C2CCC3(CC2)CC(N2CCC(c4cnc(N5CCN6c7cc(-c8ccccc8O)nnc7NC[C@H]6C5)nc4)CC2)C3)C2CCNCC2)cc1 (stereo partly drawn) [I-132] | < 50% | > 100 nM | – | – | < 50% | > 100 nM | – | – | – | –
